Each molecule was assayed against T1, human glucagon receptor (Homo sapiens, UniProt P47871) (assay: Glucagon Binding Assay (III)). Conditions: BHK cell membranes, WGA SPA beads, 125I-glucagon; read-out: Glu Bd Assay (III) IC50.
T1 construct: expressed in transfected cells; host or cells: BHK (baby hamster kidney) cells
T1 sequence (P47871 26-477): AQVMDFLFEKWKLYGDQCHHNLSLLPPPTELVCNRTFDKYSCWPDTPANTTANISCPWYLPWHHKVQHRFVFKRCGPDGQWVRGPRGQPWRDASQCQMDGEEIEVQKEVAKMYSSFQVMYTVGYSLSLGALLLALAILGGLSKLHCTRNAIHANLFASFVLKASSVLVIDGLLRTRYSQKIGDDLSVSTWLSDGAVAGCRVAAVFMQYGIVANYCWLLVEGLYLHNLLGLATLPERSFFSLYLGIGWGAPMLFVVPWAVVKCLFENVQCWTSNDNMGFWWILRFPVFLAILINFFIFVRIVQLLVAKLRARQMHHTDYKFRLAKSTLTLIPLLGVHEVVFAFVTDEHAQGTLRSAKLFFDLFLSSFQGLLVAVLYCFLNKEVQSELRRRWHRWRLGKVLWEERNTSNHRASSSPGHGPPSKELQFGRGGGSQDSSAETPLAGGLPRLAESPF
Summary of the method: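 Non-specific binding was set with 500 nM glucagon in this SPA-type binding assay using WGA beads. The receptor source was a membrane preparation, kept on ice or at 4 °C, from BHK cells transfected with the human receptor. Scintillation counts were taken after 4 hours of shaking and 8–48 hours of settling.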
Molecule O=C(Nc1nn[nH]n1)c1ccc(CN(C(=O)NCc2ccccc2-c2ccccc2)c2ccc(C3=CCCCC3)cc2)cc1 [Example 353, 4-[3-Biphenyl-2-ylmethyl-1-(4-cyclohex-1-enylphenyl)ureidomethyl]-N-(2H-tetrazol-5-yl)benzamide] has an IC50 of 22 nM.
For O=C(Nc1nn[nH]n1)c1ccc(CN(C(=O)c2ccc(OC(F)(F)F)cc2)c2ccc(C3CCCCC3)cc2)cc1 [Example 485, 4-{[(4-Cyclohexylphenyl)-(4-triflourmethoxybenzoyl)amino]methyl}-N-(2H-tetrazol-5-yl)benzamide], the IC50 was 810 nM.
Work on O=C(Nc1nn[nH]n1)c1ccc(CN(C(=O)/C=C/c2ccccc2Cl)c2ccc(N3CCCCC3)cc2)cc1 [Example 555, 4-{[[3-(2-Chlorophenyl)acryloyl]-(4-piperidin-1-ylphenyl)amino]methyl}-N-(2H-tetrazol-5-yl)benzamide] yielded an IC50 of 604 nM.
Molecule O=C(Nc1nn[nH]n1)c1ccc(CN(C(=O)CCCc2ccccc2)c2ccc(C3CCCCC3)cc2)cc1 [Example 535, 4-{[(4-Cyclohexylphenyl)-(4-phenylbutyryl)amino]methyl}-N-(2H-tetrazol-5-yl)benzamide] has an IC50 of 224 nM.
In the case of CC(=O)c1ccc(NC(=O)N(Cc2ccc(C(=O)NCCC(=O)O)cc2)C2CCC(C(C)(C)C)CC2)cc1 (stereo not shown) [Example 60, 3-{4-[3-(4-Acetylphenyl)-1-(4-tert-butylcyclohexyl)ureidomethyl]benzoylamino}propionic acid], the IC50 is reported as 83 nM.
CC(C)(C)c1ccc(N(Cc2ccc(C(=O)NCCC(=O)O)cc2)C(=O)Oc2ccc(OC(F)(F)F)cc2)cc1 [Example 411, 3-(4-{[(4-tert-Butylphenyl)-(4-trifluoromethoxyphenoxycarbonyl)amino]methyl}benzoylamino)propionic acid] was tested, and the IC50 was 704 nM.
CC(C)(C)C1CCC(N(Cc2ccc(C(=O)NCCC(=O)O)cc2)C(=O)Nc2ccccc2C(F)(F)F)CC1 (stereo not shown) [Example 25, 3-{4-[1-(4-tert-Butylcyclohexyl)-3-(2-trifluoromethylphenyl)ureidomethyl]benzoylamino}propionic acid] gave an IC50 of 935 nM.
In the case of CC(C)(C)C1CCC(N(Cc2ccc(C(=O)Nc3nn[nH]n3)cc2)C(=O)c2ccc(Cc3ccccc3)cc2)CC1 (stereo not shown) [Example 512, 4-{[(4-tert-Butylcyclohexyl)-(4-benzylbenzoyl)amino]methyl}-N-(2H-tetrazol-5-yl)benzamide], the IC50 is reported as 111 nM.
CCCCOC(=O)c1ccc(NC(=O)N(Cc2ccc(C(=O)NCCC(=O)O)cc2)C2CCC(C(C)(C)C)CC2)cc1 (stereo not shown) [Example 33, 4-{3-(4-tert-Butylcyclohexyl)-3-[4-(2-carboxyethylcarbamoyl)benzyl]ureido}benzoic acid butyl ester] gave an IC50 of 104 nM.
O=C(O)CCNC(=O)c1ccc(CN(C(=O)Nc2ccc3c(c2)C(=O)N(CC2CC2)C3=O)c2ccc(C3=CCCCC3)cc2)cc1 [Example 645, 3-{4-[1-(4-Cyclohex-1-enylphenyl)-3-(N′-[cyclopropylmethyl]phthalimid-4-yl)ureidomethyl]benzoylamino}propionic acid] gave an IC50 of 7 nM.
CC(C)c1ccc(NC(=O)N(Cc2ccc(C(=O)NCCC(=O)O)cc2)CC(c2ccccc2)c2ccccc2)cc1 [Example 55, 3-{4-[1-(2,2-Diphenylethyl)-3-(4-isopropylphenyl)ureidomethyl]benzoylamino}propionic acid] was tested, and the IC50 was 1000 nM.
CC(C)OC(=O)c1ccc(NC(=O)N(Cc2ccc(C(=O)NCCC(=O)O)cc2)C2CCC(C(C)(C)C)CC2)cc1 (stereo not shown) [Example 73, 4-{3-(4-tert-Butylcyclohexyl)-3-[4-(2-carboxyethylcarbamoyl)benzyl]ureido}benzoic acid isopropyl ester] showed an IC50 of 245 nM.
CCCCOC(=O)c1ccc(NC(=O)N(Cc2ccc(C(=O)NCCC(=O)O)cc2)CC(CC)CCCC)cc1 (stereo not shown) [Example 37, 4-[3-[4-(2-Carboxyethylcarbamoyl)benzyl]-3-(2-ethylhexyl)ureido]benzoic acid butyl ester] was tested, and the IC50 was 145 nM.
